One test concerns 3T3-L1 cells. In words: Adiponectin concentration in culture supernatant of 3T3-L1 cells (LANCE method). The test is classed as cell-based, mouse. The settings on record: for Concentration of adiponectin in the case of adding one kind of amino acids to Zero medium: 3T3-L1 culture supernatant after 72 hour incubation, amino acid at fourfold of that in Full medium, average values, N=2, Zero medium 61; for concentration of adiponectin in the culture supernatant in mediums to which the amino acid was added: amino acid added to Zero medium at fourfold of Full medium; for concentration of adiponectin in the culture supernatant in mediums to which the amino acid was added / concentration of adiponectin in mediums without the amino acid: 72 hour incubation; for concentration of adiponectin in mediums without the amino acid: amino acid removed from Full medium; for production of adiponectin as compared with Zero medium (FIG. 1): 3T3-L1 cells, 72 hours, amino acid concentration changed in Zero medium, mixture equimolar. The method, then:
3T3-L1 cells were suspended in D-MEM medium containing 10% fetal bovine serum to become 1.5×10^5 cells/mL and seeded. After the incubation in the CO2 incubator at 37° C. for 72 hours, the medium was removed by suction. Then, the medium was exchanged for D-MEM medium containing 10 ug/mL of insulin, 1 uM of dexamethazone, 0.5 mM of IBMX (3-isobutyl-1-methylxanthine) and 10% fetal bovine serum, and further incubated in the CO2 incubator at 37° C. for 48 hours. After removing the medium, it was further exchanged for the medium wherein the concentrations of amino acids were changed, with addition of 10% dialyzed fetal bovine serum (F-0392, by SIGMA), and further incubated in CO2 incubator at 37° C. for 72 hours.
D-MEM medium contains, as amino acids, 30 mg/L of glycine (Gly); 35.6 mg/L of alanine (Ala); 42 mg/L of serine (Ser); 95 mg/L of threonine (Thr); 63 mg/L of cysteine (Cys)/2HCl; 30 mg/L of methionine (Met); 1168 mg/L of glutamine (Gln); 52.8 mg/L of asparagine (Asn); 58.8 mg/L of glutaminic acid (Glu); 106.4 mg/L of asparaginic acid (Asp); 94 mg/L of valine (Val); 105 mg/L of leucine (Leu); 105 mg/L of isoleucine (Ile); 66 mg/L of phenylalanine (Phe); 208 mg/L of tylosin (Tyr)/2Na/2H2O; 16 mg/L of triptophan (Trp); 146 mg/L of lysine (Lys)/HCl; 84 mg/L of arginine (Arg); 42 mg/L of histidine (His)/HCl/H2O; and 46 mg/L of proline (Pro). Regarding the expression of the mediums, for example, Δ Met indicates the medium having the same compositions of vitamins and salts as those of D-MEM medium and said medium wherein one kind of amino acids, methionine (Met), is removed. Full medium indicates the one containing all amino acids, and Zero medium indicates the one removing all amino acids.
Eu (Europium) chelate labeling of anti-mouse adiponectin antibody (AF1119, by R&D Systems) was conducted by using 100 ug of LANCE Eu-W1024-ITC chelate (AD0013 by Perkin Elmer), which is a Eu chelate labeling reagent, to 200 μg of the antibody in accordance with the method described in the manual. Biotin labeling of anti-mouse adiponectin antibody (AF1119, by R&D Systems) was conducted by using 26.8 ug of NHS-Biotin (1418165, Biotin Labeling Kit, by Boehringer Mannheim), which is a biotin labeling reagent, to 100 μg of the antibody in accordance with the method described in the manual.
The amount of adiponectin in the cell culture supernatant was measured as follows. The culture supernatant was diluted tenfold with TBS (Tris-buffered saline; 20 mM Tris-HCl pH7.4, 0.15M NaCl) containing 0.1% bovine serum albumin (BSA), and 10 μL thereof was mixed with 300 ng/mL of the Eu chelate labeled antibody, 300 ng/mL of the biotin labeled antibody and 10 μL of a solution (TBS containing 0.1% BSA) containing 2.5 μg/mL of Streptavidin-APC (AD0201, by Perkin Elmer) on the 384-well plate. After preserving the mixture at room temperature for 2 days, LANCE count was measured by using ARVO-SX multilabel counter (by Perkin Elmer) in accordance with the protocol of the LANCE method. At the same time, the mouse adiponectin preparation (8060-K, by LINCO) was also measured, and the concentration of adiponectin in the culture supernatant was calculated from the calibration curve of the preparation.
(In TR-FRET formats the signal depends on donor and acceptor labels being close together.)

Test [1] concerns ob/ob mice. The test is described as follows: Non-fasting blood glucose of ob/ob mice given experimental diets. The test is classed as in vivo, mouse. The settings on record: experimental diet containing 4%, 17 days. The text has this: (§1) Male ob/ob mice of 5 week old (purchased from Charles River Laboratories Japan, Inc.) were preliminarily fed by a basic diet containing 25% by weight ratio of fats. Then, they were divided into groups so that their body weights and non-fasting blood glucose were the same between the groups. The used basic diet contained 17% by weight of casein and 48% by weight of starch in addition to 25% of lipids. Then, an experimental diet (containing 25% of fats) containing 4% of BCAA (its composition is a mixture of Leu, Ile and Val; their weight ratio is […]=1:1:1), Leu or Ile was provided to them. The control group was given an experimental diet wherein casein was increased by 4% from the basic diet instead of the amino acids (Control Group). As for the composition of each experimental diet, the starch content was adjusted so that each calorie per unit weight became the same. On the 17th day of provision of the experimental diet, their blood was collected and their blood glucose was measured to determine the adiponectin concentration in plasma. […] After extracting RNA, adiponectin mRNA was determined. The blood glucose of a mouse was measured by collecting 6 μL of its blood from the caudal vein and using a Fuji […] system (produced by FUJIFILM Medical Co., Ltd.). The adiponectin concentration in plasma was measured by the following method.

For test [2], the system named is ob/ob mice. The test is described as follows: Adiponectin concentration in plasma of ob/ob mice given experimental diets. The test is classed as in vivo, mouse. Particulars: experimental diet containing 4%, 17 days.
From the text: as §1, with “As for the composition of each experimental diet, the starch content was adjusted so that each calorie per unit weight became the same.” left out, “method. […] After leaving the mixture at room temperature for 2 days, LANCE count was measured by using ARVO-SX multilabel counter (by Perkin Elmer) in accordance with the protocol of the LANCE method. […]” for “method.”

The test system of a further test is adiponectin mRNA. The test is described as follows: Adiponectin mRNA in subcutaneous fats of ob/ob mice given experimental diets. The test is classed as in vivo, mouse. The settings on record: 23rd day of 4% diet, amended with β-actin mRNA. The text has this:
Male ob/ob mice of 5 week old (purchased from Charles River Laboratories Japan, Inc.) were preliminarily fed by a basic diet containing 25% by weight ratio of fats. Then, they were divided into groups so that their body weights and non-fasting blood glucose were the same between the groups. The used basic diet contained 17% by weight of casein and 48% by weight of starch in addition to 25% of lipids. Then, an experimental diet (containing 25% of fats) containing 4% of BCAA (its composition is a mixture of Leu, Ile and Val; their weight ratio is Leu:Ile:Val=1:1:1), Leu or Ile was provided to them. The control group was given an experimental diet wherein casein was increased by 4% from the basic diet instead of the amino acids (Control Group). As for the composition of each experimental diet, the starch content was adjusted so that each calorie per unit weight became the same. On the 17th day of provision of the experimental diet, their blood was collected and their blood glucose was measured to determine the adiponectin concentration in plasma. Further, on the 23rd day after starting the provision of the experimental food, autopsy was conducted, and subcutaneous fats were collected to freeze for preservation. After extracting RNA, adiponectin mRNA was determined. […]

`C[C@H](N)C(=O)O` [Ala, alanine]: in the test with 3T3-L1 cells, the “Concentration of adiponectin in the case of adding one kind of amino acids to Zero medium” value (“Concentration of adiponectin … to Zero medium” below) is on record as 98 ng/mL and the “concentration of adiponectin in the culture supernatant in mediums to which the amino acid was added” value is on record as “increased”.

Regarding `N[C@@H](CS)C(=O)O` [Cys, cysteine], in the test with 3T3-L1 cells, the “Concentration of adiponectin … to Zero medium” value came to 83 ng/mL, the “concentration of adiponectin in the culture supernatant in mediums to which the amino acid was added” value is recorded as “increased” and the “concentration of adiponectin in mediums without the amino acid” value is on record as “significantly decreased”.

In the case of `NC(=O)CC[C@H](N)C(=O)O` [Gln, glutamine], the “Concentration of adiponectin … to Zero medium” value in the test with 3T3-L1 cells came out at 21 ng/mL.

As for `CC[C@H](C)[C@H](N)C(=O)O` [Ile, isoleucine], in the test on 3T3-L1 cells, the “production of adiponectin as compared with Zero medium (FIG. 1)” value is “increase of the production of adiponectin was seen”, the “Concentration of adiponectin … to Zero medium” value is given as 119 ng/mL and the “concentration of adiponectin in the culture supernatant in mediums to which the amino acid was added” value was “increased”. The “non-fasting blood glucose as compared with before the start of providing the diet (FIG. 2)” value in the test with ob/ob mice [1] is “significantly decreased”. In addition, in the test with ob/ob mice [2], the “adiponectin concentration in plasma as compared with before the start of providing the diet (FIG. 3)” value is “tended to increase”. Besides, the “amount of adiponectin mRNA in adipose tissues (FIG. 5)” value in the test with adiponectin mRNA is “tended to increase”.

On to `CC(C)C[C@H](N)C(=O)O` [Leu, leucine], for which, in the test with 3T3-L1 cells, the “production of adiponectin as compared with Zero medium (FIG. 1)” value was “increase of the production of adiponectin was seen”. In addition, the “non-fasting blood glucose as compared with before the start of providing the diet (FIG. 2)” value in the test on ob/ob mice [1] was “significantly decreased”. The “adiponectin concentration in plasma as compared with before the start of providing the diet (FIG. 3)” value in the test with ob/ob mice [2] is “tended to increase”. In addition, in the test with adiponectin mRNA, the “amount of adiponectin mRNA in adipose tissues (FIG. 5)” value is on record as “tended to increase”.

Consider `CSCC[C@H](N)C(=O)O` [Met, methionine], for which, in the test on 3T3-L1 cells, the “Concentration of adiponectin … to Zero medium” value is on record as 66 ng/mL and the “concentration of adiponectin in mediums without the amino acid” value was “significantly decreased”.

For the compound `CC(C)[C@H](N)C(=O)O` [Val, valine], in the test with 3T3-L1 cells, the “production of adiponectin as compared with Zero medium (FIG. 1)” value is “increase of the production of adiponectin was seen”, the “Concentration of adiponectin … to Zero medium” value stood at 83 ng/mL, the “concentration of adiponectin in the culture supernatant in mediums to which the amino acid was added” value is “increased” and the “concentration of adiponectin in mediums without the amino acid” value is listed as “significantly decreased”.

For the origin of these results see patent US20090012168A1, “ADIPONECTION INDUCERS OR SECRETAGOGUES” (AJINOMOTO CO., INC., priority 2004, published 2009).
